For data set [1], the system named is PPAR γ2 mRNA. Nature of the data set: Expression of PPAR γ2 mRNA in human cell line (RT-PCR). As to conditions: Caco-2 cells, serum-free medium, 10 μM, 0-5 hours after addition. The format is cell-based. As to the method: (§1) Caco-2 cells (derived from colon cancer) as a human cell line were cultured at 37° C. in RPMI-1640 medium containing 10% fetal calf serum in the presence of 5% C02. The medium was then replaced with serum-free RPMI-1640 medium and the cells were cultured for 48 hours. In order to examine the effect of NIK-333, a solution of NIK-333 in ethanol was added at a final concentration of 10 μM. At 0, 0.5, 1, 2 and 5 hours after the addition, RNA was extracted to observe. mRNA for PPAR α, PPAR γ1 and PPAR γ2 by the RT-PCR method.

Data set [2] relates to PPAR α mRNA. Briefly: Expression of PPAR α mRNA in human cell line (RT-PCR). The class given is cell-based. As to conditions: Caco-2 cells, serum-free medium, 10 μM, 0-5 hours after addition, FIG. 1. As to the method: as §1
The target of data set [3] is T1, PPAR α (Homo sapiens, UniProt Q07869).
T1 construct: expressed in transfected cells; host or cells: COS-7 (monkey kidney)
T1 sequence (Q07869 1-468): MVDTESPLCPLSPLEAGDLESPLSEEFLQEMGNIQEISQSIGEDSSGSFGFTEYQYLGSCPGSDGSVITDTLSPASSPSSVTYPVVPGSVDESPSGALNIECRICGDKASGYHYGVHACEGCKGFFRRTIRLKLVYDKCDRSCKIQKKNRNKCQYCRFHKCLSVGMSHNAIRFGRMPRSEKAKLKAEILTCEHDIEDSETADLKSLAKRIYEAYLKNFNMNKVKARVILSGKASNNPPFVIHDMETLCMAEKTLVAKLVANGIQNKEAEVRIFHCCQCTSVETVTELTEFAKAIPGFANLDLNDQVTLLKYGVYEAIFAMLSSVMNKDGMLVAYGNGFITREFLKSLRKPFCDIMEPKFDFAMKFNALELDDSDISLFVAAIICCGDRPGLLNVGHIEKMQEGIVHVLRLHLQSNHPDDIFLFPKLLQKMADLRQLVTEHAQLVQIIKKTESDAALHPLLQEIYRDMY
T1 sequence (P19793 1-462 partner): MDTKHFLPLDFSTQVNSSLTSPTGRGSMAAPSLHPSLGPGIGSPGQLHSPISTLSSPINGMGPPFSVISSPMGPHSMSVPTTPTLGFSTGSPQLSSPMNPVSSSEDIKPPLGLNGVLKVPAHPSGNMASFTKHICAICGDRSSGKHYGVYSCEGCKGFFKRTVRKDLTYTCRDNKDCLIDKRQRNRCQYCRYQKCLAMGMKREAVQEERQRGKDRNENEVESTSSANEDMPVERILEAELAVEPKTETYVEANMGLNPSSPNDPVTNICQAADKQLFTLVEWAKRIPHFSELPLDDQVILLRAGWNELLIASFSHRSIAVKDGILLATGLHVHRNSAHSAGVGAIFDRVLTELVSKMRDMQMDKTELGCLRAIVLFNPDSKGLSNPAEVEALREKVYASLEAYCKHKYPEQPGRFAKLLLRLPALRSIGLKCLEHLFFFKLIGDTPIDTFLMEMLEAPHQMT
Briefly: Ligand activity for PPAR α (PPRE luciferase reporter in COS-7 cells). The format is cell-based. As to conditions: 10 μM, 24 hours, FIG. 3; for luciferase activity, PPAR α expression vector not introduced (−) / luciferase activity, PPAR α expression vector introduced (+): firefly luciferase standardized by renilla luciferase; for luciferase activity, PPAR α expression vector introduced (+): RXR α + PPAR α + PPRE reporter. The procedure:
COS-7 cells, a cell line derived from monkey kidney, were cultured at 37° C. in DMEM medium containing 10% fetal calf serum in the presence of 5% CO2. Then, expression vectors of RXR α (retinoic acid X receptor α) and PPAR α, and a reporter vector incorporated with PPRE (peroxisome proliferator-responsive element) as a PPAR-responsive element were cotransfected into the cells, and the cells were cultured for 24 hours. In order to examine the effect of NIK-333, a solution of NIK-333 or Wy-14643(selective agonist of PPAR α) in ethanol was added at a final concentration of 10 μM. After cultivation for 24 hours, the activity of firefly luciferase was measured. The measured values were represented as values standardized by using the renilla luciferase activity.
For orientation: In a reporter assay the amount or activity of a reporter protein is the signal.

Data set [4] has as its system hepatoma. As to conditions: clinical, cited from earlier work.
The test system of data set [5] is PPAR γ1 mRNA. Nature of the data set: Expression of PPAR γ1 mRNA in human cell line (RT-PCR). The class given is cell-based. As to conditions: Caco-2 cells, serum-free medium, 10 μM, 0-5 hours after addition, FIG. 2. The procedure: as §1

For `CC(C)=CCC/C(C)=C/CC/C(C)=C/C=C/C(C)=C/C(=O)O` [NIK-333, (2E,4E,6E,10E)-3,7,11,15-Tetramethyl-2,4,6,10,14-hexadecapentaenoic acid], the “expression of PPAR γ2 mRNA” value in data set [1] was “not observed”. Besides, the “expression of PPAR α mRNA” value in data set [2] is “observed from 0.5 hour after the addition”. Moreover, in data set [3], the “increasing action of ligand activity compared with Wy-14643” value is reported as “almost equivalent to the action of Wy-14643”; the “luciferase activity, PPAR α expression vector not introduced (−)” value was “failed to increase the luciferase activity”; the “luciferase activity, PPAR α expression vector introduced (+)” value is “increased the luciferase activity”. For the same molecule, in data set [4] (long-term administration for one-year), the “recurrence of hepatoma after radical treatment” value was “significantly inhibited recurrence of hepatoma”. The “liver function failure or other adverse effect during the administration” value in data set [4] (long-term administration) was “almost no liver function failure or almost no other adverse effect”. Besides, the “expression of PPAR γ1 mRNA” value in data set [5] is “also observed from 0.5 hour after the addition”.
On to `Cc1cccc(Nc2cc(Cl)nc(SCC(=O)O)n2)c1C` [Wy-14643, reference compound], for which, in data set [3], the “luciferase activity, PPAR α expression vector not introduced (−)” value was “failed to increase the luciferase activity” and the “luciferase activity, PPAR α expression vector introduced (+)” value is on record as “increased the luciferase activity”.

The values are drawn from patent US8017652B2, “Activators of peroxisome proliferator-activated receptors” (Kowa Company Ltd., priority 2000, dated 2011).
